Laboratory results as given in patent publication US7745492B2, “Carboxamido opioid compounds” (Janssen Pharmaceutical, priority 2004, dated 2010).

What was measured:
mu opioid receptor = molecular target: T1, mu opioid receptor (Rattus norvegicus, UniProt P33535); test: Rat brain mu opioid receptor binding assay ([3H]DAMGO); settings: rat forebrain membranes, 25° C.
T1 construct: from tissue; host or cells: rat forebrain membrane (particulate) preparation
Procedure: (§1) Rat Brain Mu and Delta Opioid Receptor Binding Assay
(§2) Male, Wistar rats (150-250 g, VAF, Charles River, Kingston, N.Y.) were killed by cervical dislocation and their brains removed and placed immediately in ice cold Tris HCl buffer (50 mM, pH 7.4). The forebrains were separated from the remainder of the brain by a coronal transection, beginning dorsally at the colliculi and passing ventrally through the midbrain-pontine junction. After dissection, the forebrains were homogenized in Tris buffer in a Teflon®-glass homogenizer. The homogenate was diluted to a concentration of 1 g of forebrain tissue per 100 mL Tris buffer and centrifuged at 39,000×G for 10 min. The pellet was resuspended in the same volume of Tris buffer with several brief pulses from a Polytron homogenizer. This particulate preparation was used for the opioid receptor binding assays. Following incubation with the mu opioid selective peptide ligand [^3H]DAMGO or the delta opioid selective ligand [^3H]DPDPE at 25° C., the tube contents were filtered through Whatman GF/B filter sheets on a Brandel cell harvester. The tubes and filters were rinsed three times with 4 mL of 10 mM HEPES (pH 7.4) and the radioactivity associated with the filter circles determined using Formula 989 scintillation fluid (New England Nuclear, Boston, Mass.) in a scintillation counter.
(§3) The data were used to calculate a Ki value, using GraphPad Prism.

delta opioid receptor = molecular target: T2, delta opioid receptor (Rattus norvegicus, UniProt P33533); test: Rat brain delta opioid receptor binding assay ([3H]DPDPE); settings: rat forebrain membranes, 25° C.
T2 construct: from tissue; host or cells: rat forebrain membrane (particulate) preparation
T2 sequence (P33533 whole entry): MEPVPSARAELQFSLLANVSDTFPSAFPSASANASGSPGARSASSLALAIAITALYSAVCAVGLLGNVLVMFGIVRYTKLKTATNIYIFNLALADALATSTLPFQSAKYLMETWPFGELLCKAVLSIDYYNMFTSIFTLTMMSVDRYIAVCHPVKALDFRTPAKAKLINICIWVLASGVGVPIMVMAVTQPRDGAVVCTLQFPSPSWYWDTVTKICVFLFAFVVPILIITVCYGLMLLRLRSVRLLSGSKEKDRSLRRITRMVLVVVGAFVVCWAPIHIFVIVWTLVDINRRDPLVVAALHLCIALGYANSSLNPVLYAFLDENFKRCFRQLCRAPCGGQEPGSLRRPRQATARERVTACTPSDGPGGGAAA
Procedure: as §1
as §2, with “Following incubation with the mu opioid selective peptide ligand [^3H]DAMGO or the delta opioid selective ligand [^3H]DPDPE at 25° C., the tube contents were filtered through Whatman GF/B filter sheets on a Brandel cell harvester.” left out
as §3

Human mu opioid = molecular target: T3, Human mu opioid (Homo sapiens, UniProt P35372); test: [35S]GTPγS binding assay in human mu opioid-CHO cell membranes; format: biochemical
T3 construct: host or cells: CHO cell membranes
T3 sequence (P35372 whole entry): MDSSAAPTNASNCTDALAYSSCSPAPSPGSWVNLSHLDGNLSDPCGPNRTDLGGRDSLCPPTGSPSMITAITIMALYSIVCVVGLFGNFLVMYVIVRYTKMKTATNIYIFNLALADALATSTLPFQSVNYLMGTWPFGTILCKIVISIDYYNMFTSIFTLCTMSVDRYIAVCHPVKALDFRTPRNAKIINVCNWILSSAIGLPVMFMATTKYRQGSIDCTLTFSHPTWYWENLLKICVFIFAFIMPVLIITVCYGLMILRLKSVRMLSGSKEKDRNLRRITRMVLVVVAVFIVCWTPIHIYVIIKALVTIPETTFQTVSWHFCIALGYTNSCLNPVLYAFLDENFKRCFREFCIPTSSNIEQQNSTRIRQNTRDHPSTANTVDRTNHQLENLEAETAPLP
Procedure: [^35S]GTPγS Binding Assay in Human mu opioid-CHO Cell Membranes
Human mu-CHO cell membranes were purchased from Receptor Biology, Inc. (Baltimore, Md.). About 10 mg/ml of membrane protein was suspended in 10 mM TRIS-HCl, pH 7.2, 2 mM EDTA, 10% sucrose.
(§4) Membranes were maintained at 4-8° C. 1 ml of membranes was added into 15 ml cold assay buffer, containing 50 mM HEPES, pH 7.6, 5 mM MgCl2, 100 mM NaCl, 1 mM DTT and 1 mM EDTA. The membrane suspension was homogenized with a Polytron 2 times and centrifuged at 3000 rpm for 10 min. The supernatant was then centrifuged at 18,000 rpm for 20 min. The pellet was resuspended in 10 ml assay buffer with a Polytron.
The pellet membranes (20 μg/ml) were preincubated with Scintillation Proximity Assay beads (SPA, 10 mg/ml) at 25° C. for 45 min in the assay buffer. The SPA beads (5 mg/ml) coupled with membranes (10 μg/ml) were then incubated with 0.5 nM [^35S]GTPγS in the same HEPES buffer containing 50 μM GDP in total volume of 200 μl. A range of concentrations of receptor agonists were used to stimulate [^35S]GTPγS binding. The basal binding was tested in the absence of agonist and non-specific binding was tested in the presence of 10 μM unlabeled GTPγS. Radioactivity was quantified on a Packard TopCount.
Data were Calculated as Follows: % of basal=(stimulated−non-specific)*100/(basal−non specific) % Inhibition=(% Basal of 1 μM DAMGO−% Basal of compound)*100/(% Basal of 1 μM DAMGO−100)
(§5) EC50 values were calculated using the Prism program.

Delta opioid = molecular target: T4, Delta opioid (Mus musculus, UniProt P32300); test: [35S]GTPγS binding assay in NG108-15 cell membrane; format: biochemical; settings: NG108-15 cell membranes
T4 construct: NG108-15 cell membranes were purchased from Applied Cell Sciences (Rockville, Md.); host or cells: NG108-15 cell membranes
T4 sequence (P32300 whole entry): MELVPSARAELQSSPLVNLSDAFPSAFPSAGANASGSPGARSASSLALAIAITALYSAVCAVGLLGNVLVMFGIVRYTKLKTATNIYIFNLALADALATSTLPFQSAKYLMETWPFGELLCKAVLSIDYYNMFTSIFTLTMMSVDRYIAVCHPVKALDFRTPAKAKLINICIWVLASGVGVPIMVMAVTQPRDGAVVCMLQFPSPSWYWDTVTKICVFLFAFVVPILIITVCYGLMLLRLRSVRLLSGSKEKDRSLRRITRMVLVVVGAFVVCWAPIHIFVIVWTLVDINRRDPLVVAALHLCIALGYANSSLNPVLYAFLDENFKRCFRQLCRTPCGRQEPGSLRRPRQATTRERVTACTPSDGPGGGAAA
Procedure: [^35S]GTPγS Binding Assay in NG108-15 Cell Membrane
NG108-15 cell membranes were purchased from Applied Cell Sciences (Rockville, Md.). An 8 mg/mL portion of membrane protein was suspended in 10 mM TRIS-HCl, pH 7.2, 2 mM EDTA, 10% sucrose.
as §4, with “C. A” for “C.”, “1 mL portion” for “1 ml”, “into 10 mL” for “into 15 ml”, “mM Tris,” for “mM HEPES,”, “mM EGTA.” for “mM EDTA.”, “buffer using” for “buffer with”
The pellet membranes (75 μg/ml) were preincubated with SPA beads (10 mg/ml) at 25° C. for 45 min in the assay buffer. The SPA beads (5 mg/ml) coupled with membranes (37.5 μg/ml) were then incubated with 0.1 nM [^35S] GTPγS in the same Tris buffer containing 100 μM GDP in total volume of 200 μl. A range of concentrations of receptor agonists was used to stimulate [^35S] GTPγS binding. The basal binding was tested in the absence of agonist and non-specific binding was tested in the presence of 10 μM unlabeled GTPγS. The radioactivity was quantified on a Packard TopCount.
Calculations were performed as follows: % of Basal=(stimulated−non specific)*100/(basal−non specific).
as §5

Male Sprague Dawley rats = test: Spinal nerve ligation (SNL) model of neuropathic pain, mechanical allodynia (Von Frey); format: in vivo; settings: rat
Procedure: Spinal Nerve Ligation (SNL) Model of Neuropathic Pain
Male Sprague Dawley rats weighing 145 to 165 g (approximately 6 weeks of age) were obtained from Harlan (Indianapolis, Ind.). Food and water were provided ad lib and a 12 h light and 12 h dark cycle were maintained. Animals were group housed under specific pathogen-free, barrier maintained environment and were allowed to acclimate for no less than 1 week. Following surgery, animals were housed individually in solid bottom polycarbonate cages with automatic watering devices at 22° C. and a relative humidity of 60%. All animals received Harland Tekland Diet # 8604.
Anesthesia was induced using isoflurane (IsoVet™) inhalant in an induction chamber (3-5% in 2 L/min of O2). Once recumbent, the animal was removed and placed into a nose cone which delivered inhalant isoflurane (0.5-2.5% at 2 L/min Of O2). The dorsal pelvic area was shaved and scrubbed aseptically with chlorhexidine scrub, 70% alcohol, and a 5% chlorhexidine solution. The animal was held in ventral recumbency on a heating pad, and the surgical procedure described by Kim and Chung (1992) was performed. The left paraspinal muscles were separated from the spinous processes at the level of Lumbar 4 to Sacral 2 (L4-S2). Once the musculature was retracted, the L6 transverse process was removed using a small rongeur. L4 and L5 spinal nerves could then be visualized. L5 was then isolated and ligated using 6-0 silk suture material. Warm saline and a dose of long-acting antibiotic was administered immediately post-op before recovery form anesthesia.
At least one week following surgery, animals were individually placed in a Lucite testing chamber with a wire mesh bottom. Mechanical (tactile) allodynia was measured by recording the pressure at which the affected paw was withdrawn from graded stimuli (Von Frey hairs ranging from 4.0 to 148.1 mN equivalent to 0.25 to 15 g of pressure) applied to the plantar surface of the paw (between the footpads) according to the procedure of Chaplan et. al (1994) in order to calculate paw withdrawal threshold (PWT). Normal rats can withstand at least 15 g of pressure without responding. SNL rats can respond to as little as 0.25 g of pressure. Rats were included in this study only if their PWT was below 4.0 g.
Animals were used for compound testing between 2 weeks and 8 weeks post-operatively. Animals were always pre-tested for baseline withdrawal threshold on the day of testing. Following a 16 h fast, PWT was evaluated at 30 min, 1 h, 2 h, and 4 h post-dosing. Dose-response studies were conducted at the time of peak effect. Studies were conducted in a blinded manner.
Data were normalized and results were presented as % MPE (maximum possible effect) of the drug.

male Sprague-Dawley rats = test: Rat CFA radiant heat model of inflammatory pain; format: in vivo; settings: dosed orally 24 h after intraplantar CFA
Procedure: Rat CFA Radiant Heat Model of Inflammatory Pain
Intraplantar injection of Complete Freund's Adjuvant (CFA) in rodents results in a strong, long-lasting inflammatory reaction, characterized by a chronic and pronounced hyperalgesia to both thermal and mechanical stimuli. These effects peak between 24-72 h following injection, and can last for several days to a few weeks. To assess the ability of compounds to reverse thermal hyperalgesia, male Sprague-Dawley rats (200-350 g) were given an intraplantar injection of CFA (1:1 CFA:saline, 100 μL) into their left hindpaw. Following a 24-h incubation period, response latencies on the Radiant Heat Paw Stimulator (RH) were obtained and compared to baseline (pre-CFA) latencies. The RH device automatically registered lifting of the paw from the surface of the glass. […] Following the post CFA latency assessment, rats were dosed orally (2.5 mL/kg) with test compound or vehicle (hydroxypropylmethylcellulose, HPMC). Percent reversal of hyperalgesia was calculated for each animal as (Treatment Response−postCFA Response)/(preCFA Response−postCFA Response)×100. Therefore, a return to normal pre-CFA thresholds was defined as 100% efficacy, whereas no change from post-CFA thresholds was 0% efficacy. Average % reversal of hyperalgesia was then calculated for each treatment group (n=6-8 rats/group). […]

[1] = test system: spinal nerve ligated rats; test: Investigation of tolerance development to antiallodynic effect; format: in vivo, rat; settings: dosing for five days, evaluated days one and five
Procedure: Investigation of Tolerance Development
The development of tolerance to the analgesic effect of mu opioid compounds is well known. The development of tolerance to the antiallodynic effect of the Compound 3 was investigated by administering the compound to spinal nerve ligated rats for five days. The antiallodynic effect of the compound was evaluated on days one and five.

T1 sequence (P33535 whole entry): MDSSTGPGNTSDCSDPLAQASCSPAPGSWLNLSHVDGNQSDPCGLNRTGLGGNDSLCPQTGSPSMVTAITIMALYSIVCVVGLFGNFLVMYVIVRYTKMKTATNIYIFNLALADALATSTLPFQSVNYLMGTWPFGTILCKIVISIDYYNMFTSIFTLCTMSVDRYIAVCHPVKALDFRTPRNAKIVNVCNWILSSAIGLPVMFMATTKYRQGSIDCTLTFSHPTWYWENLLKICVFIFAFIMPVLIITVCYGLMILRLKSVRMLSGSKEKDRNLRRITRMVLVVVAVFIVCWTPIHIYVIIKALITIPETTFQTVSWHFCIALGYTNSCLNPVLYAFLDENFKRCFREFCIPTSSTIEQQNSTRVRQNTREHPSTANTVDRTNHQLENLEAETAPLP

SMILES	Ki (mu opioid receptor) [nM]	Ki (delta opioid receptor) [µM]	also measured
CN(C)C[C@@H]1CCCC[C@]1(O)c1cccc(C(N)=O)c1 (racemic) [Cpd 1, 3-[(1-RS, 2-SR)-2-[(Dimethylamino)methyl]-1-hydroxycyclohexyl]-benzamide]	1390	9.87	
CCN(CC)C(=O)c1cccc([C@@]2(O)CCCC[C@@H]2CN(C)C)c1 (racemic) [Cpd 5, 3-[(1-RS, 2-RS)-2-[(dimethylamino)methyl]-1-hydroxycyclohexyl]-N,N-diethyl-benzamide]	> 10000	> 10	
CN(C)C[C@H]1CCCC[C@]1(O)c1cccc(C(N)=O)c1 (racemic) [Cpd 2, 3-[(1-RS, 2-RS)-[(2-Dimethylamino)methyl]-1-hydroxycyclohexyl]-benzamide]	29.4	2.47	Mu opioid GTPγS (result in words) (Human mu opioid): Agonist; EC50 (Delta opioid): 5.63 µM; MPE in spinal nerve ligation model (Male Sprague Dawley rats; 3 mg/kg, i.v.): 87%; MPE in spinal nerve ligation model (Male Sprague Dawley rats; 30 mg/kg, p.o.): 88%
CN(C)C[C@@H]1CCCC[C@@]1(O)c1cccc(C(N)=O)c1 (single isomer, unassigned) [Cpd 4]	828	> 10	EC50 (Human mu opioid): 4.82 µM; Mu opioid GTPγS relative efficacy (Human mu opioid): 41%; MPE in spinal nerve ligation model (Male Sprague Dawley rats; 30 mg/kg, p.o.): 39%; MPE in spinal nerve ligation model (Male Sprague Dawley rats; 100 mg/kg, p.o.): 95%; Antihyperalgesic effect (reversal of thermal hyperalgesia) (male Sprague-Dawley rats): antihyperalgesic
CN1CC[C@]23c4c5ccc(O)c4O[C@H]2[C@@H](O)C=C[C@H]3[C@H]1C5 [morphine, reference compound]			Development of tolerance to the antiallodynic effect [1]: little or no antiallodynic effect remaining after five days of dosing
CNC(=O)c1cccc([C@@]2(O)CCCC[C@@H]2CN(C)C)c1 (racemic) [Cpd 7, 3-[(1-RS, 2-RS)-2-[(Dimethylamino)methyl]-1-hydroxycyclohexyl]-N-methylbenzamide]	2120	> 10	
CN(C)C[C@H]1CCCC[C@]1(O)c1cccc(C(=O)NC2CC2)c1 (racemic) [Cpd 6, N-Cyclopropyl-3-[(1-RS, 2-RS)-2-[(dimethylamino)methyl]-1-hydroxycyclohexyl]-benzamide]	5190	> 10	
